We go through one substance from patent US20080014585A1, “SYNERGISTIC ACTIVATION OF REGULATORY ELEMENTS BY REL PROTEINS AND A STEROID RECEPTOR” (N.V. Organon, priority 2000, published 2008).

“Also recorded” adds a separate entry of the source.

One experiment deals with T1, human ERα (Homo sapiens, UniProt P03372).
T1 construct: expressed in transfected cells; host or cells: COS-1 (monkey)
T1 sequence (P03372 1-595): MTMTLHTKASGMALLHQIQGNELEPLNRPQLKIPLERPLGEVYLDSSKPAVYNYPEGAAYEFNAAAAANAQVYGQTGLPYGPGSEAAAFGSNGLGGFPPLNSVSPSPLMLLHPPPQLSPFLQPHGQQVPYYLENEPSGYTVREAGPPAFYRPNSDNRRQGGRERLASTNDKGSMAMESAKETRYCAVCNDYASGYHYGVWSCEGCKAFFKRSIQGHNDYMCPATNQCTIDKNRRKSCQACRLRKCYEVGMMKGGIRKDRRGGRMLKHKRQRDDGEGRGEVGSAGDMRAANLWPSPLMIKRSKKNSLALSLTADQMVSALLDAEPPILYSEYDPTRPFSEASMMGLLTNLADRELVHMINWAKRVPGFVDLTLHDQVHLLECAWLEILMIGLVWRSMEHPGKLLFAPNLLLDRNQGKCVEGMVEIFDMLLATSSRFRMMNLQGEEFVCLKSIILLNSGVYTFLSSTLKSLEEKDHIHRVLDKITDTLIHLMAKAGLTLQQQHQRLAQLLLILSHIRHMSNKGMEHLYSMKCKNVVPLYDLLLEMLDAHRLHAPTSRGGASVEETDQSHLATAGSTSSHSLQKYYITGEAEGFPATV
As to the kind of experiment: 5-HT1A receptor promoter (-901luc) luciferase reporter, COS-1 cells cotransfected with NF-κB (p50, p65) and ERα. Format: cell-based.

A further experiment deals with classical ERE. The note with it: transactivation experiments, reference 22; cited from earlier work.
The target of the next experiment is ERα (Homo sapiens, UniProt P03372). The note with it: cited from earlier work.

Description for human ERα: Depicted is the induction of luciferase activity evoked by NF-κB over cells transfected with empty expression vector. Bars represent the mean of at least three independent experiments ±S.D. (B) COS-1 cells were transiently transfected with 4×NF-κ B(HIV)tkluc in combination with empty expression vector or expression vectors encoding the p50 and p65 subunits of NF-κB and expression vectors encoding ERα or ERβ. Cells were either untreated (white bars) or treated with 10^−8 M E2 (black bars) for 24 h. Depicted is the induction of luciferase activity evoked by NF-κB over cells transfected with empty expression vector. Bars represent the mean of at least three independent experiments ±S.D.
(A) COS-1 cells were transiently transfected with the −901luc reporter construct together with empty expression vector or expression vectors encoding the p50 and p65 subunits of NF-κB in combination with expression vectors encoding ERα and treated with E2, OH-T or ICI for 24 h as indicated. Depicted is the induction of luciferase activity evoked by NF-κB over cells transfected with empty expression vector. Bars represent the mean of at least three independent experiments ±S.D. FIG. 4. […] Depicted is the induction of luciferase activity evoked by the NF-κB subunits over cells transfected with empty expression vector. Bars represent the mean of at least three independent experiments ±S.D.
Cell Culture. […]

For 4-hydroxytamoxifen, the “enhancement of 5-HT1A receptor promoter activity by ERα and NF-κB” value on human ERα is “further induced; also recorded: as potent as E2”. Also, in the experiment with classical ERE, the “transcription of genes regulated by a classical ERE” value was “inhibited transcription”. At ERα, the “transcription of genes under the control of an AP-1 element with ERα” value is reported as “activated”.
